One data set has as its system HSV-1. Particulars: Lewandowski et al. 1989; cited from earlier work.
For the next data set, the system named is thymidine phosphorylase. Particulars: cited from earlier work.
Data set [1] deals with mixed function oxidase system. The data set is described as follows: IPdR oxidation by mixed function oxidase system from rat liver microsomes. Type of data set: in vitro ADME. Particulars: with or without NADPH. An excerpt: (§1) In order to determine which enzyme is responsible for the catalysts of this IPdR oxidation, a series of known oxido-reductases which have similar capability to oxidize a carbon atom with an adjacent amino group into a carbonyl functionality were explored for their ability to catalyze IPdR oxidation. […] A mixed function oxidase system prepared from the microsome of rat liver a broad spectrum of substrates and is NADPH dependent. […] Alcohol dehydrogenase (which can be obtained from Sigma) and alcohol oxidase (which can be obtained from Sigma) both reside in the soluble fraction of liver cell extracts, but the conversion of IPdR to […] was not detected with purified preparation of either enzyme under the same conditions that they converted their natural substrates effectively. […]

A further data set concerns HSV-2. Conditions: Lewandowski et al. 1989; cited from earlier work.
For the next data set, the system named is uninfected cells. Particulars: Lewandowski et al. 1989; cited from earlier work.
Another data set deals with Sarcosine oxidase. In words: IPdR oxidation by sarcosine oxidase. Type of data set: biochemical.
Excerpt: as §1

The test system of a further data set is liver and tumor tissue. The data set is described as follows: Thymidine replacement in liver and tumor tissue of athymic nude mice having metastatic tumors. Type of data set: in vivo. Particulars: 100, 250, 500 mg/kg/d (FIG. 7). The procedure: Mice were administered daily dosages of 0, 100, 250 and 500 mg/kg/d to determine thymidine replacement in liver and tumor tissue. The results presented in FIG. 7 are presented as mean percent thymidine replacement ± one standard error of the mean. n≥3 (control tumors n=2).

For a further data set, the system named is mice. Particulars: oral, at the dosage employed; cited from earlier work.
Another data set relates to IPdR oxidase. The data set is described as follows: Conversion of IPdR to IUdR by cell extracts (rat tissues). It is filed as in vitro ADME. The procedure:
(§2) Rat hepatic tissue was washed with ice-cold 1.15% KCl and blotted dry. The tissue was then homogenized with a tissue homogenizer, in a volume of 1.15% KCl that was 3 times the tissue weight, to form a 25% (w/v) homogenate. The homogenate was then centrifuged at 10,000 g for 10 minutes at 4° C. The resulting supernatant was filtered through Miracloth (similar to cheese cloth) then dialyzed overnight against 50 mM Tris-HCl buffer pH 7.5 and stored at -80° C. before use. Rat hepatocytes were obtained by a perfusion technique then the cells were extracted with 10 mM phosphate buffer, pH 7.5, containing 1M KCl and dialyzed for 4 hours against 50 mM Tris-HCl buffer pH 7.5.
(§3) For the standard assay condition, the reaction mixture contained 50 mM Tris-HCl, pH 7.5, 1 mM EDTA, 180 μM of IPdR (or its analogs) and approximately 0.01 mg protein of 10,000 g supernatant of tissue homogenate in a final volume of 500 μl and the incubation was at 37° C. for 10 minutes unless specified otherwise. 300 μl of reaction mixture was removed at the end of incubation and mixed with 630 μl acetonitrile then agitated. The precipitated protein were removed by centrifugation and the supernatant was lyophilized to dryness. The samples were reconstituted to the original aliquot volume with the HPLC mobile phase buffer and analyzed on a Alltech RP-18 column. IPdR, IUdR and IU were detected at a UV absorption wavelength of 230 nm, and IPdR was also detected at a UV absorption wavelength of 335 nm. The mobile phase was 10% acetonitrile/90%mM ammonium acetate, pH 6.8 and the flow rate was 1 ml/minute. Standard curves of IPdR and IUdR were established from the integration value of known concentrations.
Differential fractionation centrifugation was used in an attempt to localize this IPdR conversion enzyme activity in the liver homogenate. The enzyme activity assay was performed on each fraction. […] Further purification was achieved by use of DEAE cellulose column chromatography, blue Sepharose column chromatography and glycerol gradient centrifugation in this order. This IPdR oxidase activity was purified 380 fold starting from the crude extracts of rat liver. The partially purified enzyme catalyzed IUdR synthesis at a rate of 3.8 μmoles per minute per milligram of protein at 37° C. under these conditions. The apparent molecular weight of this enzyme in both rats and humans as determined by centrifugation on a 20 to 40% glycerol gradient is approximately 280,000 dalton. Neither cofactor nor divalent cations requirement has been found for the rat liver enzyme or the human liver enzyme.
Tissue specificity of the conversion of IPdR

Data set [2] can be described thus: Michaelis constant / Vmax of 2-pyrimidinone deoxyribose analogs with the liver enzyme. Particulars: rat, liver aldehyde oxidase. Type of data set: biochemical, rat. The procedure: as §2, §3
(§4) Several 2-pyrimidinone deoxyribose analogs were examined for the conversion to their deoxyuridine counterparts. […] Nevertheless the relative Vmax for IPdR in the reaction at pH 7.5 and pH 9.5 is the same. […] The synthetic substrates for aldehyde oxidase appear to be better than its natural substrates, N^1 -methylnicotinamide and acetaldehyde, as judged by the potency of inhibition of N^1 -methylnicotinamide and acetaldehyde to the IPdR oxidation reaction (Table IV). The rate of reactivity of the liver enzyme with different IPdR analogs follows the order EPdR, IP, IPdR, 5-bromo-2-pyrimidinone deoxyribose (BPdR) and 5-methyl-2-pyrimidinone deoxyribose (MPdR) or 5-ethyl-2-pyrimidinone deoxyribose (EtPdR) (Table V). Electronegative substituents in the 5-position seemed to increase the substrate activity in this oxidation reaction.

For the next data set, the system named is aldehyde oxidase. The data set is described as above. Conditions: pH 7.5 versus pH 9.5. It is filed as biochemical, rat. The protocol: as §2, §3, §4
Another data set relates to Xanthine oxidase. In words: Conversion of IPdR to IUdR by xanthine oxidase. It is filed as biochemical. Conditions: isolated from cow milk.
Excerpt: as §1

Entries after “also recorded” stand apart in the source; their conditions may differ.

The values below come from patent US5728684A, “Determination of prodrugs metabolizable by the liver and therapeutic use thereof” (priority 1994, dated 1998).

In the case of `O=c1ncc(I)cn1[C@H]1C[C@H](O)[C@@H](CO)O1` [IPdR, 1-(2-deoxy-β-D-ribofuranosyl)-5-(iodo)-2-pyrimidinone], the “activity against HSV-1 in cell culture” value in the data set with HSV-1 is listed as “potent activity”. Besides, the “substrate for thymidine phosphorylase” value in the data set with thymidine phosphorylase is “not substrates for thymidine phosphorylase”. Besides, the “IPdR oxidase activity of rat liver microsomal fraction” value in data set [1] is listed as “no IPdR oxidase activity”. Besides, in the data set with HSV-2, the “activity against HSV-2 in mice” value is given as “potent activity”. In the data set with uninfected cells, the “toxicity to uninfected cells” value is given as “not toxic”. Moreover, the “IPdR oxidase activity of sarcosine oxidase” value with Sarcosine oxidase is reported as “no IPdR oxidase activity”. The “percent thymidine replacement in tumor” value in the data set on liver and tumor tissue was “increasing tumor incorporation; also recorded: increasing percent replacement”. For the same compound, the “percent incorporation in liver” value with liver and tumor tissue (normal liver) is “negligible; also recorded: very small percent incorporation”. For the same compound, the toxicity to mice entry with mice is listed as “not toxic”. Also, the “IPdR oxidase specific activity of hepatocyte extracts” value with IPdR oxidase (compared with whole liver extract) is reported as “very similar specific activity”. The “Specific activity of the conversion of IPdR to IUdR” value with IPdR oxidase (hepatocyte (rat), 3 samples) is reported as 5-11 n mole/mg protein/min; with IPdR oxidase (intestine (rat), 3 samples, conversion not detected), less than 0.02 n mole/mg protein/min; in the data set with IPdR oxidase (kidney (rat), 3 samples) it was 0.8-1.6 n mole/mg protein/min; in the data set with IPdR oxidase (liver (rat), 5 samples) it was 5-15 n mole/mg protein/min; with IPdR oxidase (lung (rat), 3 samples, conversion not detected), less than 0.02 n mole/mg protein/min; with IPdR oxidase (spleen (rat), 3 samples) it was 0.2-0.5 n mole/mg protein/min. Further, the “IPdR oxidase activity in extracts of kidney and spleen” value in the data set on IPdR oxidase (rat kidney and spleen extracts, compared with liver) is given as “much less active”. Also, the “IPdR oxidase activity in lung or intestine extracts” value in the data set on IPdR oxidase (rat lung or intestine extracts) is “cannot be detected”. For the same compound, the Michaelis constant (Km) amounted to 150 µM in data set [2] (pH 7.5) and 87 µM in data set [2] (pH 9.5). The “relative Vmax” value in the data set with aldehyde oxidase was “the same”. In addition, the “conversion of IPdR to IUdR by xanthine oxidase” value in the data set on Xanthine oxidase is given as “failed to convert IPdR to IUdR”.

The Km is the concentration of substrate that gives half-maximal velocity.
